Assays:
[1] = system: mouse CFU-g; experiment: CFU-g assay (colony assay), mouse; assay type: cell-based; conditions: potency as G-CSF mimetic
Protocol: (§1) In determining potency as G-CSF mimetics, the following assay is employed: CFU-g Assay
(§2) The compounds of present invention are tested for potency as G-CSF mimetics in a CFU-g assay, an example of which is described in King AG, Talmadge J., Badger AM, Pelus LM. Regulation of colony stimulating activity production from bone marrow stromal cells by the hematoregulatory peptide, HP-5. Exp. Hematol. 20:223-228, 1992.

[2] = system: human CFU-g; experiment: CFU-g assay (colony assay), human; assay type: cell-based; conditions: potency as G-CSF mimetic
Protocol: as §1, §2

`O=c1n2c(nc3n1[C@]1(c4ccccn4)n4c(nc5nc6ccccc6n5c4=O)N[C@]1(c1ccccn1)N3)nc1ccccc12` [Compound A, 7a, 17a-bis(2-pyridyl)-16,19-dioxo-5,7a, 10,16,17a, 19-hexahydro-benzimidazo[2′,1′:4,5][1,3,5]triazino[1,2-a]benzimidazo[2″,1″:4′,5′][1,3,5]triazino[1′,2′:1,2]imidazo[4,5-d]imidazole] was tested, and the “mouse CFU-g, colony assay/% Gmax @ 3 uM” value [1] was 43 % Gmax and the “human CFU-g, colony assay/% Gmax @ 3 uM” value [2] was 41 % Gmax.

From US6346531B1, “G-CSF mimetics” (SmithKline Beecham Corporation, priority 1998, dated 2002)
